Data reported in patent US6130248A, “Tricarboxylic acid-containing oxyalkyl esters and uses thereof” (Bar-ILAn University, priority 1996, dated 2000).

Columns and labels:
[1] = tested on: P3HR-1 EBV-positive lymphoma cells; experiment: [3H]-thymidine incorporation in EBV-positive lymphoma cells; type: cell-based, human; conditions: combination with GC, 72 hours
Description: The effect of GOMB to AB was compared on EBV virus-associated tumors. EBV-positive cells from P3HR-1, a human lymphoma cell line, were incubated in growth medium with the specified concentration of GOMB, AB, ganciclovir (GC), or combination of these, for 72 hours, seeded in 96-well plates and pulsed with 1 μCi [^3 H]-thymidine/well during the last 16 hours of exposure to the compounds. Cells were harvested with a cell harvester, using glass microfiber filters. The incorporation of [^3 H]-thymidine was determined by retention of the acid insoluble fraction on filters and is expressed as CPM.

[2] = tested on: K562 cells (HbF); experiment: HbF synthesis in K562 cells (ion-exchange HPLC); type: cell-based, human
Description: (§1) K562 cells: K562 is an erthroblast cell line that develops some properties of erythroid, megakaryocyte or monocyte cells, depending on the specific stimulus, when induced by different chemicals. K562 cells were grown in RPMI with 10% FCS, supplemented with 2 mM glutamine. Cells were incubated at 37° C. in a humidified, 5% CO2 incubator.

[3] = tested on: 53 primary tumor cell lines; experiment: Inhibition of clonogenicity of primary tumor cells; type: cell-based, human; conditions: Homo sapiens
From the text: The tested tumor cells were from 11 non-small cell lung carcinomas, 10 breast carcinomas, 10 gastric carcinomas, 10 ovarian carcinomas, and 10 CNS tumors.

[4] = tested on: β-thalassemia and sickle-cell anemia; conditions: β-globin disorders; cited from earlier work
[5] = tested on: HT-29 cells; experiment: SRB cell proliferation assay; type: cell-based; conditions: Homo sapiens; HT-29, SRB
Description: (§2) The inhibition of cell proliferation was measured in the indicated cancer cell lines using the sulforhoamine B (SRB) assay as described by Monks et al., J. Natl. Can. Inst. […] The SRB assay is used to screen for anti-cancer drugs.

[6] = tested on: HL-60 cells; experiment: SRB cell proliferation assay; type: cell-based; conditions: Homo sapiens; HL-60, SRB
Description: as §2

[7] = tested on: CFPAC cells; experiment: SRB cell proliferation assay; type: cell-based
Description: as §2

[8] = tested on: MCF7 cells; experiment: SRB cell proliferation assay; type: cell-based; conditions: Homo sapiens
Description: as §2

[9] = tested on: established tumor cell lines; experiment: Clonogenicity of established tumor cell lines, all lines together; type: cell-based, human; conditions: in words
Description: (§3) Inhibition of tumor growth was tested using cell lines as follows: […]

[10] = tested on: K562 cells (HbF); experiment: Hb-containing K562 cells by benzidine staining; type: cell-based, human; conditions: 0.05 mM, 5 days
Description: Hb Measurement: HB was measured by benzidine staining of K562 cells after 5 days exposure to GOMB or AB according to the procedure of Fibach et al. (1989) [full cite]. Quantitative measurement of HbF in K562 culture or human erythroid cultures was determined by ion-exchange high pressure liquid chromatography (HPLC) as described by Fibach et al., Blood 81:1630-1635, 1993.
as §1

[11] = tested on: MCF-7 cells (WAF); experiment: Apoptosis in breast cancer cells, staining with WAF antibody / Western blot; type: cell-based, human; conditions: 100 μM
Description: Induction of apoptosis by COMB and AB in MCF-7 cells was evaluated by staining cells with the WAF antibody and by Western blot analysis as described by Bacus et al., 1996, Oncogene 12:2535-2547.

[12] = tested on: MCF7-WT (Breast Carcinoma); experiment: Clonogenicity of established tumor cell lines (soft agar); type: cell-based, human; conditions: Homo sapiens; MCF7-WT clonogenicity
Description: as §3

[13] = tested on: NBAS-5 (Neuroblastoma); experiment: as above; type: cell-based, human; conditions: Homo sapiens; NBAS-5 clonogenicity
Description: as §3

[14] = tested on: PC3 (Prostate Carcinoma); experiment: as above; type: cell-based, human; conditions: Homo sapiens; PC3 clonogenicity
Description: as §3

[15] = tested on: SK-N-SH (Neuroblastoma); experiment: as above; type: cell-based, human; conditions: Homo sapiens; SK-N-SH clonogenicity
Description: as §3

[16] = tested on: SMS-KAN (Neuroblastoma); experiment: as above; type: cell-based, human; conditions: Homo sapiens; SMS-KAN clonogenicity
Description: as §3

[17] = tested on: K562 (Erytholeukemia); experiment: as above; type: cell-based, human; conditions: Homo sapiens; K562 clonogenicity
Description: as §3

[18] = tested on: LA1-5S (Neuroblastoma); experiment: as above; type: cell-based, human; conditions: Homo sapiens; LA1-5S clonogenicity
Description: as §3

[19] = tested on: SK-N-MC (Neuroblastoma); experiment: as above; type: cell-based, human; conditions: Homo sapiens; SK-N-MC clonogenicity
Description: as §3

[20] = tested on: MCF7-40F (Breast Carcinoma); experiment: as above; type: cell-based, human; conditions: Homo sapiens; MCF7-40F clonogenicity
Description: as §3

[21] = tested on: NBL-W-N (Neuroblastoma); experiment: as above; type: cell-based, human; conditions: Homo sapiens; NBL-W-N clonogenicity
Description: as §3

[22] = tested on: LNCaP (Prostate Carcinoma); experiment: as above; type: cell-based, human; conditions: Homo sapiens; LNCaP clonogenicity
Description: as §3

[23] = tested on: IMR-32 (Neuroblastoma); experiment: as above; type: cell-based, human; conditions: Homo sapiens; IMR-32 clonogenicity
Description: as §3

[24] = tested on: Au565 breast carcinoma cells; experiment: Differentiation by lipid staining; type: cell-based, human; conditions: 10 μM
From the text: Lipid staining and/or immunochemical staining of casein can be used as a marker for cellular differentiation of breast cancer cells (Bacus et al., Md. Carcin. 3:350-362, 1990). Casein detection can be done by histochemical staining of breast cancer cells using a human antibody to human casein as described by Cheung et al., J. Clin. Invest. 75:1722-1728,which is incorporated by reference in its entirety.
In the case of the human breast carcinoma cell line Au565, 100%. Of the cells treated with 10 μM GOMB were positive for lipid staining whereas less than 1% of cells treated with the same concentration of AB were positive for lipid staining.

For `CCCC(=O)O` [AB, arginine butyrate, reference compound], the “interaction with ganciclovir (GC) in inhibiting proliferation” value [1] was “interact synergistically with GC”, the “HbF Synthesis in K562 Cells” value ([2]; 0.01 mM) was 0.96 µg/mL and the “HbF Synthesis in K562 Cells” value ([2]; 0.05 mM) was 0.95 µg/mL. The “HbF Synthesis in K562 Cells” value ([2]; 0.10 mM) was 1.8 µg/mL, the “HbF Synthesis in K562 Cells” value ([2]; 0.50 mM) was 3.69 µg/mL and the IC90 [3] was 2.12 mM. The clinical efficacy [4] was “moderate efficacy”, the IC50 [5] was over 4 mM and the IC90 [5] was over 4 mM. The IC50 [6] was 1.64 mM, the IC90 [6] was 3.45 mM and the IC50 [7] was over 4 mM. It also gave an IC90 [7] of over 4 mM, an IC50 [8] of over 4 mM and an IC90 [8] of over 4 mM. For the same molecule, the “inhibition of cell proliferation, dose dependence” value [9] was “inhibit cell proliferation in a dose-dependent manner”, the “Percentage K562 Cells Containing HbF” value [10] was 3 ± 2% and the “% Cells Expressing WAF” value [11] was 23%. It also gave an IC50 [12] of 1.5 mM, an IC90 [12] of 9.47 mM and an IC50 [13] of 0.883 mM. For the same molecule, the IC90 [13] was 13 mM, the IC50 [14] was 0.226 mM and the IC50 [15] was 0.998 mM. For the same molecule, the IC90 [15] was 3.4 mM, the IC50 [16] was 1.14 mM and the IC90 [16] was 2.08 mM. It also gave an IC50 [17] of 0.772 mM, an IC50 [18] of 1.63 mM and an IC90 [18] of 2.67 mM. For the same molecule, the IC50 [19] was 0.215 mM, the IC90 [19] was 1.31 mM and the IC50 [20] was 0.817 mM. The IC90 [20] was 3.18 mM, the IC50 [21] was 0.489 mM and the IC90 [21] was 3.07 mM. It also gave an IC50 [22] of 0.78 mM, an IC90 [22] of 6.7 mM and an IC50 [23] of 0.881 mM. The IC90 [23] was 3.57 mM and the “cells positive for lipid staining” value [24] was “less than 1%”.
With `CCCC(=O)OCOC(=O)C(C)(C)C` [AN-9, pivaloyloxymethyl butyrate] the IC50 [5] was 0.144 mM, the IC90 [5] was 0.231 mM and the IC50 [6] was 0.039 mM. It also gave an IC90 [6] of 0.0599 mM, an IC50 [7] of 0.0559 mM and an IC90 [7] of 0.0898 mM. For the same molecule, the IC50 [8] was 0.18 mM and the IC90 [8] was 0.238 mM.
